Earlier results, collected in patent US20190008832A1, “COMPOSITIONS FOR THE TREATMENT OF PRESBYOPIA” (priority 2015, published 2019).

System: eye

## CC[C@@H]1C(=O)OC[C@@H]1Cc1cncn1C [pilocarpine]
WO2008/075149 compositions: pilocarpine HCl 1% and diclofenac sodium 0.5%
  Side effects in some patients: causes diarrhea and dyspepsia
Single active ingredient in a topical composition
  Percentage of pilocarpine necessary to be effective in the treatment of presbyopia: greater than 0.5 % by weight
topical, reddening of the eye, ocular and forehead pain, headaches
  Tolerability of pilocarpine at percentages higher than 0.5% by weight: not tolerated
